Experimental data published in patent US11542233B2, “Compounds, compositions and methods of use” (Aquinnah Pharmaceuticals, Inc., priority 2016, dated 2023).

Tested on: TDP-43 aggregation in PC12 cells stably expressing GFP-tagged mutant TDP-43 (TDP-43^Q33IK::eGFP)
Assay: In vitro efficacy assay: inhibition of TDP-43 inclusions, concentration-response, fluorescence microscopy
Format: cell-based
Conditions: Rattus norvegicus, PC-12, PC12 cells, 1 hour pre-treatment, 15 μM sodium arsenite for 23 hours, 10-point dose response curve
Protocol: Exemplary compounds of the invention were evaluated for efficacy in inhibiting TDP-43 inclusions using a concentration-response assay. Briefly, PC12 cells stably expressing a GFP-tagged mutant form of TDP-43 (TDP-43^Q33IK::eGFP) were pre-treated for 1 hour with exemplary compounds and stressed with 15 μM sodium arsenite for 23 hours to induce TDP-43 aggregation. The inhibitory effect on TDP-43 aggregation was measured using fluorescence microscopy. The ratio of cells with TDP-43 aggregates was calculated based on the total number of cells with detectable GFP expression. In the table, “A” indicates an IC50 of less than 100 nM, “B” indicates an IC50 range from 100 nM to 500 nM; “C” indicates an IC50 range from 500 nM to 2 μM; and “D” indicates an IC50 greater than 2 μM.

| Compound | IC50 |
| --- | --- |
| CCN(C(=O)c1ccccc1)[C@H]1CCC[C@@H](NCc2ccccc2)C1 [Compound 405] | > 2000 nM |
| CCN(C(=O)c1nc2cc(F)ccc2[nH]1)[C@H]1CCC[C@@H](NCc2cccc(C#N)c2)C1 [Compound 528] | < 100 nM |
| CCN(C(=O)c1cc2cc(C#N)ccc2[nH]1)[C@H]1CCC[C@@H](NCc2cc3ccccc3o2)C1 [Compound 533] | < 100 nM |
| O=C(c1cc2ccccc2[nH]1)N(CC(F)(F)F)C1CCC[C@H](NCc2cccnc2)C1 (stereo partly shown) [Compound 174] | > 2000 nM |
| CCN(C(=O)c1cc2cc(C(F)(F)F)ccc2[nH]1)[C@H]1CCC[C@@H](NCc2ccccc2)C1 [Compound 544] | < 100 nM |
| C#CCOc1ccc(C(=O)c2ccc(CN[C@@H]3CCC[C@H](N(CC)C(=O)c4cc5ncccc5[nH]4)C3)cc2)cc1 [Compound 463, N-ethyl-N-((1S,3R)-3-((4-(4-(prop-2-yn-1-yloxy)benzoyl)benzyl)amino)cyclohexyl)-1H-pyrrolo[3,2-b]pyridine-2-carboxamide] | < 100 nM |
| CCN(C(=O)c1nc2cc(OC(F)(F)F)ccc2[nH]1)[C@H]1CCC[C@@H](NCc2ccccc2)C1 [Compound 539, N-((1S,3R)-3-(benzylamino)cyclohexyl)-N-ethyl-5-(trifluoromethoxy)-1H-benzo[d]imidazole-2-carboxamide] | < 100 nM |
| [2H]C([2H])(N[C@@H]1CCC[C@H](N(CC)C(=O)c2cc3ccccc3[nH]2)C1)c1ccccc1 [Compound 521, N-ethyl-N-((1S,3R)-3-((phenylmethyl-d2)amino)cyclohexyl)-1H-indole-2-carboxamide] | < 100 nM |
| CCN(C(=O)c1cc2ncccc2[nH]1)[C@H]1CCC[C@@H](NCc2cccc(F)c2)C1 [Compound 150, N-ethyl-N-((1S,3R)-3-((3-fluorobenzyl)amino)cyclohexyl)-1H-pyrrolo[3,2-b]pyridine-2-carboxamide] | < 100 nM |
| CCN(C(=O)c1cc2ccccc2[nH]1)[C@@H]1CCC[C@@H](NCc2ccccc2)C1 [Compound 104] | 500 to 2000 nM |
| CCN(C(=O)c1cc2ncccc2[nH]1)[C@H]1CCC[C@@H](NCc2nccs2)C1 [Compound 446] | 500 to 2000 nM |
| CCN(C(=O)c1nc2c(F)cccc2[nH]1)[C@H]1CCC[C@@H](NCc2ccccc2)C1 [Compound 482] | < 100 nM |
| CCN(C(=O)c1nc2ccccc2[nH]1)[C@H]1CCC[C@@H](NCc2ccccc2)C1 [Compound 400, N-((1S,3R)-3-(benzylamino)cyclohexyl)-N-ethyl-1H-benzo[d]imidazole-2-carboxamide] | < 100 nM |
| CCN(C(=O)c1nc2ccccc2[nH]1)[C@H]1CCC[C@@H](NCc2ccc3nc(C)oc3c2)C1 [Compound 530, N-ethyl-N-((1S,3R)-3-(((2-methylbenzo[d]oxazol-6-yl)methyl)amino)cyclohexyl)-1H-benzo[d]imidazole-2-carboxamide] | < 100 nM |
| CCN(C(=O)c1cc2ncccc2[nH]1)[C@H]1CCC[C@@H](NCc2ccc3ncoc3c2)C1 [Compound 441] | < 100 nM |
| CCN(C(=O)c1nc2cc(C#N)ccc2[nH]1)[C@H]1CCC[C@@H](NCc2cc3ccccc3o2)C1 [Compound 517] | < 100 nM |
| CCN(C(=O)c1cc2ccccc2[nH]1)[C@H]1CCC[C@@H](N[C@H]2CCc3cc(F)ccc32)C1 [Compound 124] | < 100 nM |
| CCN(C(=O)c1cc2ncccc2[nH]1)[C@H]1CCC[C@@H](NCc2ccc3ocnc3c2)C1 [Compound 443] | < 100 nM |
| CCN(C(=O)c1nc2cc(C#N)ccc2[nH]1)[C@H]1CCC[C@@H](NCc2oc3ccccc3c2C#N)C1 [Compound 520] | < 100 nM |
| CCN(C(=O)c1nc2ccccc2[nH]1)[C@H]1CCC[C@@H](NCc2cccc(OC(F)(F)F)c2)C1 [Compound 472] | < 100 nM |
| CCN(C(=O)c1nc2cc(C#N)ccc2[nH]1)[C@H]1CCC[C@@H](NCc2ccccc2)C1 [Compound 485] | < 100 nM |
| CCN(C(=O)c1nc2ccccc2[nH]1)[C@H]1CCC[C@@H](NCc2ccc3nccn3c2)C1 [Compound 474] | 100 to 500 nM |
| CCN(C(=O)c1cc2cc(C#N)ccc2[nH]1)[C@H]1CCC[C@@H](NCc2cccc(F)c2)C1 [Compound 534] | < 100 nM |
| CCN(C(=O)c1cc2ccccc2[nH]1)[C@H]1CCC[C@@H](NCc2ccc(F)cc2)C1 [Compound 123, N-ethyl-N-((1S,3R)-3-((4-fluorobenzyl)amino)cyclohexyl)-1H-indole-2-carboxamide] | < 100 nM |
| CCN(C(=O)c1cc2ccccc2[nH]1)[C@@H]1CCC[C@@H](N[C@@H]2CCc3ccccc32)C1 [Compound 114] | > 2000 nM |
| CCN(C(=O)c1cc2ccccc2[nH]1)[C@H]1CCC[C@@H](NCc2cccc(S(C)(=O)=O)c2)C1 [Compound 431] | < 100 nM |

| Compound | IC50 |
| --- | --- |
| CCN(C(=O)c1nc2cc(C(F)(F)F)ccc2[nH]1)[C@H]1CCC[C@@H](NCc2ccccc2)C1 [Compound 545] | < 100 nM |
| CCN(C(=O)c1cc2ncccc2[nH]1)[C@H]1CCC[C@@H](NC(C)(C)c2ccc(OC)cc2)C1 [Compound 408] | < 100 nM |
| CCN(C(=O)c1cc2ccccc2[nH]1)[C@H]1CCC[C@@H](NCc2ccc(OC)cc2)C1 [Compound 128] | < 100 nM |
| O=C(c1cc2ccccc2[nH]1)N(CC(F)(F)F)[C@H]1CCC[C@@H](NCC2CCOCC2)C1 [Compound 183] | > 2000 nM |
| CCN(C(=O)c1nc2cc(F)ccc2[nH]1)[C@H]1CCC[C@@H](NCc2cc3ccccc3o2)C1 [Compound 523] | < 100 nM |
| O=C(c1cc2ncccc2[nH]1)N(CC(F)(F)F)[C@H]1CCC[C@@H](NCc2ccc(F)cc2)C1 [Compound 423] | < 100 nM |
| CCN(C(=O)c1nc2ccccc2[nH]1)[C@H]1CCC[C@@H](NCc2ccc3cncn3c2)C1 [Compound 492] | < 100 nM |
| CCN(C(=O)c1nc2ccccc2[nH]1)[C@H]1CCC[C@@H](NCc2cc(C3CC3)no2)C1 [Compound 495, N-((1S,3R)-3-(((3-cyclopropylisoxazol-5-yl)methyl)amino)cyclohexyl)-N-ethyl-1H-benzo[d]imidazole-2-carboxamide] | < 100 nM |
| CCN(C(=O)c1cc2ncccc2[nH]1)[C@H]1CCC[C@@H](NCc2c[nH]cn2)C1 [Compound 447] | 100 to 500 nM |
| CCN(C(=O)c1cc2ncccc2[nH]1)[C@H]1CCC[C@@H](NC2(c3ccccc3)CC2)C1 [Compound 418, N-ethyl-N-((1S,3R)-3-((1-phenylcyclopropyl)amino)cyclohexyl)-1H-pyrrolo[3,2-b]pyridine-2-carboxamide] | 100 to 500 nM |
| CCN(C(=O)c1cc2ccccc2[nH]1)[C@H]1COC[C@@H](NCc2ccccc2)C1 [Compound 300, N-((3R,5S)-5-(benzylamino)tetrahydro-2H-pyran-3-yl)-N-ethyl-1H-indole-2-carboxamide] | 100 to 500 nM |
| CCN(C(=O)c1cc2ncccc2[nH]1)[C@H]1CCC[C@H](NC(C)(C)c2ccc(OC)cc2)C1 [Compound 409] | 500 to 2000 nM |
| CCN(C(=O)c1cc2ccccc2[nH]1)[C@H]1CCC[C@@H](N[C@H]2CCc3ccccc32)C1 [Compound 120] | 500 to 2000 nM |
| CCN(C(=O)c1cc2ccccc2[nH]1)[C@@H]1COC[C@@H](N[C@@H]2CCc3ccccc32)C1 [Compound 507, N-((3S,5S)-5-(((R)-2,3-dihydro-1H-inden-1-yl)amino)tetrahydro-2H-pyran-3-yl)-N-ethyl-1H-indole-2-carboxamide] | > 2000 nM |
| CCN(C(=O)c1cc2ccccc2[nH]1)[C@H]1CCC[C@@H](NCc2cc(C3CC3)no2)C1 [Compound 455] | < 100 nM |
| CCN(C(=O)c1cc2ccccc2[nH]1)[C@H]1CCC[C@@H](N[C@@H](c2cncnc2)C(F)(F)F)C1 (single isomer, unassigned) [Compound 413] | 500 to 2000 nM |
| C#Cc1ccc(C(=O)c2cccc(CN[C@@H]3CCC[C@H](N(CC)C(=O)c4cc5ccccc5[nH]4)C3)c2)cc1 [Compound 312, N-ethyl-N-((1S,3R)-3-((3-(4-ethynylbenzoyl)benzyl)-amino)cyclohexyl)-1H-indole-2-carboxamide] | 500 to 2000 nM |
| CCN(C(=O)c1cc2ccccc2[nH]1)[C@H]1CCC[C@@H](NCc2cc(C)no2)C1 [Compound 458] | 100 to 500 nM |
| CCN(C(=O)c1cc2ccccc2[nH]1)C1CCC[C@@H](NCc2ccccc2)C1 (stereo partly shown) [Compound 101] | < 100 nM |
| CCN(C(=O)c1nc2cc(F)ccc2[nH]1)[C@H]1CCC[C@@H](NCc2cc(C3CC3)on2)C1 [Compound 552, N-((1S,3R)-3-(((5-cyclopropylisoxazol-3-yl)methyl)amino)cyclohexyl)-N-ethyl-5-fluoro-1H-benzo[d]imidazole-2-carboxamide] | < 100 nM |
| CCN(C(=O)c1cc2ccccc2[nH]1)[C@H]1CCC[C@@H](NCC2CCOCC2)C1 [Compound 118] | 100 to 500 nM |
| CCN(C(=O)c1cc2ccccc2[nH]1)[C@H]1CCC[C@@H](NCc2ccnc(OC)c2)C1 [Compound 457] | < 100 nM |
| CCN(C(=O)c1cc2ccccc2[nH]1)[C@H]1CCC[C@@H](NCc2nc3ccccc3s2)C1 [Compound 451] | 100 to 500 nM |
| CCN(C(=O)c1cc2ccccc2[nH]1)[C@H]1COC[C@@H](N[C@@H]2CCc3ccccc32)C1 [Compound 504, N-((3R,5S)-5-(((R)-2,3-dihydro-1H-inden-1-yl)amino)tetrahydro-2H-pyran-3-yl)-N-ethyl-1H-indole-2-carboxamide] | < 100 nM |
| CCN(C(=O)c1nc2ccccc2[nH]1)[C@H]1CCC[C@@H](NCc2oc3ccccc3c2C)C1 [Compound 476] | < 100 nM |
| CCN(C(=O)c1nc2ccccc2[nH]1)[C@H]1CCC[C@@H](NCc2ccc3cccn3c2)C1 [Compound 514, N-ethyl-N-((1S,3R)-3-((indolizin-6-ylmethyl)amino)cyclohexyl)-1H-benzo[d]imidazole-2-carboxamide] | < 100 nM |
